In data set [1] the test system is gap junctions between AMs and AECs. Briefly: Gap junction blockade in vivo. The settings on record: for effect on PS-GAMP adjuvanticity (IgG2c): i.p. prior to and during immunization. Details: species or system mice.
The test system of a further data set is GZ89 H3N2 virus. Details: species or system mice. The settings on record: mouse, in vivo.
A further data set concerns CA09 H1N1 vaccine. In kind it is in vivo, C57BL/6 mice. Particulars: 20 μg, 2 weeks.
The next data set deals with SH13 H7N9 virus. Details: species or system mice. The settings on record: mouse, in vivo.
The subject of data set [2] is immune mediators (Ifnb1, Gmcsf, Tnf, Ccl2, Ccl3, Ccl5, Cxcl10). Particulars: mouse, in vivo.
The conditions of data set [3]: mouse, in vivo.
The mark [4] stands for this setting: i.p. inhibitor, i.n. SRB-nano4, 12 h.

Here are results for seven compounds from US20220362153A1, “COMPOSITIONS AND METHODS FOR PULMONARY SURFACTANT-BIOMIMETIC NANOPARTICLES” (priority 2019, published 2022).

For `CC1(C)[C@@H](OC(=O)CCC(=O)O)CC[C@]2(C)[C@H]3C(=O)C=C4[C@@H]5C[C@@](C)(C(=O)O)CC[C@]5(C)CC[C@@]4(C)[C@]3(C)CC[C@@H]12` [CBX, carbenoxolone], in data set [1] (setting [4]), the “SRB uptake by AMs” value was “did not affect SRB uptake by AMs” and the “entry of SRB into AECs” value is on record as “blocked”. For the same compound, the “effect on PS-GAMP adjuvanticity (IgG2c)” value in data set [1] was “blunted substantially”. Besides, in data set [1] (lungs receiving PS-GAMP, 12 h), the “Ifnb1 transcription in AMs” value is given as “increasing Ifnb1 transcription in AMs”; the “transcription of Ifnb1 and Gmcsf in AECs” value is given as “greatly diminished”. Moreover, in data set [1] (vaccine + PS-GAMP, lung, 24 h), the “reduction of recruitment of CD11b+ DCs” value is on record as 50%.

In the case of `CCOC(=O)C1=C[C@@H](OC(CC)CC)[C@H](NC(C)=O)[C@@H](N)C1` [oseltamivir], the “control of CA09 H1N1 viral infection” value with CA09 H1N1 virus (unimmunized mice, 20 mg/kg/day) was “effectively control CA09H1N1”.

With `CC(=O)c1ccc2c(c1)[C@H](NC(=O)c1ccc(F)c(Cl)c1)[C@H](O)C(C)(C)O2` [tonabersat], the “effect on PS-GAMP adjuvanticity (IgG2c)” value in data set [1] is recorded as “blunted substantially”.

For the compound `Cc1ccc(Cl)c(Nc2ccccc2C(=O)O)c1Cl` [meclofenamate], in data set [1], the “effect on PS-GAMP adjuvanticity (IgG2c)” value is given as “blunted substantially”.

With `CCCCCCCCc1ccc(CCC(N)(CO)CO)cc1` [FTY720], the “effect on cross-protection elicited by vaccine/PS-GAMP” value in the data set on GZ89 H3N2 virus was “not compromised”.

poly IC: in the data set on CA09 H1N1 vaccine, the “lower efficacy in augmenting BALF IgA (vs PS-GAMP)” value turned out to be 30 fold, the “lower efficacy in augmenting HAI titers (vs PS-GAMP)” value is listed as “fivefold” and the “lower efficacy in augmenting serum IgG (vs PS-GAMP)” value was found to be 100 fold. In the data set with CA09 H1N1 virus (mouse, in vivo), the “body weight loss after 10×LD50 CA09 H1N1 challenge” value is “severe body weight loss” and the “protection against 10×LD50 CA09 H1N1 viral challenge” value is reported as 33%. Further, in the data set with SH13 H7N9 virus, the “heterosubtypic protection from SH13 H7N9 challenge” value is listed as “failed to provoke significant heterosubtypic protection”.

In the case of cholera toxin [CT], in data set [2], the “cytokine production in the brain” value is on record as “measurable cytokine mRNA expression in the brains of some mice”. Also, the “histology of lungs, nasal tissue, and brains” value in data set [3] is on record as “massive inflammatory cell infiltrates in the lung”.
